Laboratory results: article PMC6778101 (Nature Communications, 2019)
Ends that are not written are not given here. Peptide text beside a SMILES is read from it.

What was measured:
E. coli K-12 BW25113 = assay: microbe, parasite or virus in culture; assay type: cell-based, Escherichia coli; details: for MIC: starting wild-type strain of the evolution experiment, broth dilution, MS medium, 5 × 10^5 cells/mL, 30 °C, 24 h, MIC = OD600 < 0.05; for MIC in 30 °C / MIC in 37 °C: strain not given
[1] = tested on: E. coli K-12 BW25113 carrying ASKA plasmids; assay: microbe, parasite or virus in culture; assay type: cell-based, Escherichia coli; details: for MIC fold change: MIC of ASKA pooled library / MIC of E.coli carrying empty ASKA plasmid; for MIC value of E. coli K-12 BW25113 carrying the empty plasmid of the ASKA library / MIC value of E. coli K-12 BW25113 carrying the pooled plasmids of the ASKA library: MS medium + 10 µg mL−1 CHL + 500 µM IPTG, 5 × 10^5 cells, 16–18 h, 37 °C; for Average fold change of the 3 replicates (MIC pooled ASKA library / MIC empty plasmid): mean of three biological replicates
In short: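 E. coli BW25113 transformed with the pooled ASKA ORF overexpression library, or empty-vector control, grown with CHL, induced with IPTG.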

Human red blood cells = assay: Hemolysis assay; assay type: cell-based; details: for ATI (activity/toxicity index), ratio MHC / MM: MHC on human red blood cells / median of MICs in E. coli K12
Protocol: Human red blood cells (hemoglobin concentration (Hb) 150–160 g L^−1) were collected from apparently healthy patients in EDTA tubes. 600 µL of EDTA-blood were washed in TBS buffer (10 mM TRIS, 150 mM NaCl) and centrifuged at 1500 × g for 1 min until the supernatant became colorless. The final pellet was diluted to 5 mL with TBS buffer. Hundred microliters of this cell suspension was pipetted into sterile Eppendorf tubes together with twofold serial dilutions of each compound to a final volume of 200 μl. Final concentrations ranged between 2500 µg mL^−1–9.75 µg mL^−1. Following incubation for one hour at 37 °C, samples were centrifuged at 1500 g for 1 min to precipitate the red blood cells. All supernatants were transferred to sterile 96-well plates for the measurement of their direct optical density (OD) at 565 nm wavelength (Multiskan FC microplate reader, Thermo Scientific). Melittin (Bachem) at concentration of 50 µg.mL^−1 and TBS were used as positive (100% hemolysis) and negative (no hemolysis) controls, respectively. Haemolytic effect of each peptide at each concentration was calculated as follows: Hemolysis effect = (Compound OD565nm − TBS OD565nm) × 100/(Melitin OD565nm − TBS OD565nm).

[2] = replicate 1 (first line per drug)
[3] = replicate 2 (second line per drug)
[4] = replicate 3 (third line per drug)

Compound	MIC (E. coli K-12 BW25113) [µg/mL]	MIC fold change [1, 2]	MIC fold change [1, 3]	MIC fold change [1, 4]	MIC value of E. coli K-12 BW25113 carrying the empty plasmid of the ASKA library ([1]; Replicate 1) [µg/mL]	MIC value of E. coli K-12 BW25113 carrying the pooled plasmids of the ASKA library ([1]; Replicate 1) [µg/mL]	MIC value of E. coli K-12 BW25113 carrying the empty plasmid of the ASKA library ([1]; Replicate 2) [µg/mL]	MIC value of E. coli K-12 BW25113 carrying the pooled plasmids of the ASKA library ([1]; Replicate 2) [µg/mL]	MIC value of E. coli K-12 BW25113 carrying the empty plasmid of the ASKA library ([1]; Replicate 3) [µg/mL]	MIC value of E. coli K-12 BW25113 carrying the pooled plasmids of the ASKA library ([1]; Replicate 3) [µg/mL]	Average fold change of the 3 replicates (MIC pooled ASKA library / MIC empty plasmid) [1]	MIC in 30 °C (E. coli K-12 BW25113; incubation time 24 hour) [µg/mL]	MIC in 37 °C (E. coli K-12 BW25113; incubation time 24 hour) [µg/mL]	MIC in 30 °C (E. coli K-12 BW25113; incubation time 48 hour) [µg/mL]	MIC in 37 °C (E. coli K-12 BW25113; incubation time 48 hour) [µg/mL]	MIC in 30 °C (E. coli K-12 BW25113; incubation time 72 hour) [µg/mL]	MIC in 37 °C (E. coli K-12 BW25113; incubation time 72 hour) [µg/mL]	ATI (activity/toxicity index), ratio MHC / MM (Human red blood cells)	MM (median of MICs) (E. coli K-12 BW25113; median of MICs in E. coli K12) [µg/mL]	MHC (minimum haemolytic concentration, concentration causing 10% haemolysis) (Human red blood cells; human red blood cells, 1 h, 37 °C) [µg/mL]
NC[C@H]1O[C@H](O[C@H]2[C@H](O)[C@@H](O[C@H]3O[C@H](CO)[C@@H](O)[C@H](N)[C@H]3O)[C@H](N)C[C@@H]2N)[C@H](O)[C@@H](O)[C@@H]1O [KAN, Kanamycin]	8	1.3	1.3	1.69	9.65	12.55	7.43	9.65	7.43	12.55	1.43									
CC[C@H](C)[C@@H]1NC(=O)CNC(=O)[C@H](CCCNC(=N)N)NC(=O)[C@H](Cc2ccc(O)cc2)NC(=O)[C@@H]2CSSC[C@H](NC1=O)C(=O)N[C@@H](Cc1ccc(O)cc1)C(=O)N[C@@H](CCCNC(=N)N)C(=O)N[C@@H](CCCCN)C(=O)N[C@H](C(=O)N[C@@H](CCCNC(=N)N)C(N)=O)CSSC[C@H](NC(=O)[C@H](Cc1c[nH]c3ccccc13)NC(=O)[C@@H](N)CCCNC(=N)N)C(=O)N[C@@H](Cc1ccccc1)C(=O)N[C@@H](CCCNC(=N)N)C(=O)N[C@@H](C(C)C)C(=O)N2 [TPII, tachyplesin II] (HELM PEPTIDE1{R.W.C.F.R.V.C.Y.R.G.I.C.Y.R.K.C.R.[am]}$PEPTIDE1,PEPTIDE1,3:R3-16:R3|PEPTIDE1,PEPTIDE1,7:R3-12:R3$$$V2.0; N-terminus and C-terminus assumed; bridges inferred)		1	1	1							1.00	5	5	5	6	6	6	155.22		
SWLSKTAKKLENSAKKRISEGIAIAIQGGPR [CP1, Cecropin P1]	100				2.31	2.31	2.31	2.31	2.31	2.31								> 847.45	2.95	> 2500
